How the values were obtained:
Assay type in all cases: in vivo
[1] = tested on: Female ob/ob obese diabetic mice; assay: Bromocriptine and GBR 12909, alone and combined, 14 days in ob/ob mice (Example 8); conditions: bromocriptine 10 mg/kg, GBR 12909 20 mg/kg, daily 14 days, FIG. 10
Experimental: The effects of adding GBR (a selective dopamine reuptake inhibitor) to bromocriptine (a dopamine D2 receptor agonist that can reduce central norepinephrine neuronal activity) in an effort to circumvent the impact of the D2 receptor agonist effect to reduce endogenous dopamine and to therefore improve metabolic disorders was examined in ob/ob mice treated with either vehicle, bromocriptine (BC) (10 mg/kg), GBR 12909 (20 mg/kg) or bromocriptine (10 mg/kg) plus GBR 12909 (20 mg/kg). Female ob/ob obese diabetic mice were fed standard chow and different groups of animals (n=5-7 group) were treated daily for 14 days with bromocriptine (to reduce norepinephrine neuronal activity) (10 mg/kg), GBR 12909 (to increase dopaminergic neuronal activity) (20 mg/kg) or with bromocriptine (10 mg/kg) plus GBR 12909 (20 mg/kg), or vehicle. […] BC had no effect on blood glucose level. The BC/GBR effect on blood glucose level was more than additive of the individual effects of BC and GBR combined (FIG. 10)

[2] = tested on: mice fed a high fat diet for 20 weeks; assay: Bromocriptine and GBR 12909, alone and combined, in high fat diet mice (Example 12); conditions: bromocriptine 5 mg/kg, GBR 12909 5 mg/kg
Experimental: The effects of adding GBR (a selective dopamine reuptake inhibitor) to bromocriptine (a dopamine D2 receptor agonist that can reduce central norepinephrine neuronal activity) in an effort to circumvent the impact of the D2 receptor agonist effect to reduce endogenous dopamine and to therefore improve metabolic disorders was examined in mice fed a high fat diet for 20 weeks and then treated with either vehicle, bromocriptine (BC) (5 mg/kg), GBR 12909 (5 mg/kg) or bromocriptine (5 mg/kg) plus GBR 12909 (5 mg/kg). […] Again, increasing central dopaminergic neuronal activity and decreasing central norepinephrine neuronal activity simultaneously produces synergistic reductions in metabolic disorders. […] BC alone had no effect on plasma insulin level (FIG. 21).

[3] = tested on: Female mice fed a high fat diet for 20 weeks; assay: GBR 12909 and FA, alone and combined, 14 days in high fat diet mice (Example 9); conditions: for body weight: 2 weeks treatment, normal weight for age matched controls=28 grams, FIG. 15; for plasma insulin levels: compared to lean controls, FIG. 12
Experimental: Female mice at 4 weeks of age were fed a high fat diet for 20 weeks to induce diabetes and insulin resistance and continued on such diet while treated for 14 days with either GBR 12909 (10 mg/kg), FA (15 mg/kg), GBR 12909 (10 mg/kg) plus FA (15 mg/kg), or vehicle and sacrificed after 14 days of treatment for the analyses of body fat, blood glucose, plasma insulin, and plasma nitric oxide levels. The composite of body fat store level, blood glucose and plasma insulin was reduced the greatest in the GBR/FA group and by a magnitude more than additive of the individual GBR and FA groups combined. Only the GBR/FA group normalized plasma insulin levels. […] This effect was not observed with either GBR or FA treatments alone.

[4] = tested on: obese, diabetic female ob/ob mice; assay: Fusaric acid and SKF 38393, alone and combined, 14 days in ob/ob mice (Example 4); conditions: fusaric acid 15 mg/kg, SKF 38393 10 mg/kg
Experimental: Fusaric acid is a dopamine beta hydroxylase inhibitor that reduces noradrenaline synthesis in noradrenergic neurons. It is not present in dopaminergic neurons and thus exerts no such effect there. SKF38393 is a post-synaptic dopamine D1 receptor agonist with no marked influence on noradrenergic neurons. A study was conducted to determine the interactive effects of fusaric acid plus SKF 38393 on body fat store levels, and blood glucose and plasma triglyceride levels in ob/ob mice. The ob/ob mouse is hyperphagic, obese, insulin resistant, diabetic and dyslipidemic due to the absence of functional leptin as a result of a mutation in this gene.
Obese, diabetic female ob/ob mice (body weight of approximately 33 g) maintained on 14 hour daily photoperiods, housed one per cage and allowed to feed ad libitum were randomized to once daily treatment with either fusaric acid (15 mg/kg; n=6-8), SKF 38393 (10 mg/kg; n=6-8), both fusaric acid (15 mg/kg) and SKF 38393 (10 mg/kg) (n=6-8), or vehicle (control group; n=6-8) for a 14 day period. On the fifteenth day of the study and approximately 24 hours after the final treatment animals were sacrificed and blood samples were obtained for the analyses of blood glucose, plasma free fatty acid and triglyceride levels. Relative to controls, fusaric acid raised blood glucose from 380+/−30 mg/dl to 430+/−30 mg/dl and SKF 38393 reduced blood glucose to 290+/−55 mg/dl. However, fusaric acid plus SKF 38393 reduced blood glucose to 180+/−20 mg/dl. […] Neither fusaric acid nor SKF 38393 had any effect on retroperitoneal fat pad weight (735+/−43 mg and 735+/−50 mg, respectively versus control value of 727+/−25 mg) however, the combination of fusaric acid plus SKF 38393 reduced retroperitoneal fat pad weight to 680+/−25 mg.

[5] = tested on: Female obese diabetic mice (ob/ob strain); assay: Bupropion and FA, alone and combined, 14 days in ob/ob mice (Example 7); conditions: bupropion 40 mg/kg, FA 10 mg/kg, FIG. 9
Experimental: Female obese diabetic mice (ob/ob strain) at 6 weeks of age were fed standard rodent chow and different groups of animals (n=5-7/group) were treated with bupropion (40 mg/kg), FA (10 mg/kg), bupropion (40 mg/kg) plus FA (10 mg/kg), or vehicle for 14 days and then sacrificed for the analyses of blood glucose and body fat store level. […] Moreover, these reductions were more than additive in magnitude relative to the effects of the individual compounds combined.

[6] = tested on: high fat fed, hypertensive SHR rats; assay: Quinelorane and fusaric acid, alone and combined, in high fat fed hypertensive SHR rats (Example 5); conditions: SHR rats on high fat diet
Experimental: Male SHR rats were maintained on 14 hour daily photoperiods and fed a high fat diet (60% of energy from fat; 5.24 kcal/gram weight) for 3 weeks and then divided into different groups and treated with either quinelorane (Q; a dopamine D2/D3 mixed receptor agonist) (0.075 mg/kg), fusaric acid (FA; a dopamine beta hydroxylase inhibitor) (12.5 mg/kg), quinelorane (0.075 mg/kg) plus FA (Q/FA) (12.5 mg/kg), or vehicle at 13 hours after light onset for 17 days. The doses of Q and FA were set at less than half maximal to effect central dopamine receptor binding functions and dopamine beta hydroxylase activity, respectively. […] Blood pressure measurements were taken at 14 days of treatment and animals were sacrificed at 18 days of treatment for analyses of body fat and humoral factors and metabolites. […] Respecting blood glucose, although both Q and FA reduced glucose level relative to vehicle, only the Q/FA regimen normalized blood glucose in these animals relative to vehicle (FIG. 6).

[7] = tested on: obese, diabetic female ob/ob mice; assay: GBR 12909 and clonidine, alone and combined, 14 days in ob/ob mice with mild diabetes (Example 2); conditions: GBR 12909 about 20 mg/kg, clonidine about 0.1 mg/kg, once daily 14 days, controls 202+/−41
Experimental: GBR 12909 is a specific dopamine reuptake inhibitor. Its use can increase the dopaminergic to noradrenergic neuronal activity in the central nervous system. However, by combining GBR 12909 with clonidine, a noradrenergic alpha 2 receptor agonist with preferential affinity for presynaptic alpha 2 sites, it is possible to further increase the dopamine to noradrenaline neuronal activity ratio in the central nervous system. A study was conducted to determine the interactive effects of GBR 12909 and clonidine on blood glucose level in ob/ob mice.
Obese, diabetic female ob/ob mice (body weight of approximately 28 g) with mild diabetes were maintained on 14 hour daily photoperiods, housed one per cage and allowed to feed ad libitum. Different groups of these animals were randomized to once daily treatment with either a specific dopamine reuptake inhibitor, GBR 12909 at an approximate dose of 20 mg/kg body weight (n=4), or clonidine at an approximate dose of 0.1 mg/kg (n=5), these same dosages of GBR 12909 plus clonidine (n=3), or vehicle (control group; n=5-7) for a 14 day period. On the fifteenth day of the study and approximately 24 hours after the final treatment animals were sacrificed and blood samples were obtained for the analyses of blood glucose levels.

[8] = tested on: Female C57 Black mice fed a high simple sugar/moderate fat diet (western diet); assay: GBR 12909, FA, clonidine and combinations in C57 Black mice on western diet, body fat (Example 6); conditions: GBR 25 mg/kg, FA 10 mg/kg, clonidine 0.075 mg/kg, 14 days, FIG. 7
[9] = tested on: obese, diabetic mice (ob/ob strain); assay: GBR 12909 once daily for 14 days in obese, diabetic ob/ob mice (Example 1); conditions: 30 mg/kg once daily 14 days
Experimental: GBR 12909 (1-(2-[bis(4-Fluorophenyl)methoxy]ethyl)-4-(3-phenylpropyl)piperazine dihydrochloride) is a specific dopamine reuptake inhibitor. Systemic administration of GBR 12909 can increase the dopaminergic to noradrenergic neuronal activity in the central nervous system. A study was conducted to determine the effects of GBR 12909 upon blood glucose and plasma free fatty acid levels in obese, diabetic mice (ob/ob strain). The ob/ob mouse is hyperphagic, obese, insulin resistant, diabetic and dyslipidemic due to the absence of functional leptin as a result of a mutation in this gene. Starvation or calorie restriction of these mice leads to increases in plasma free fatty acid levels that can function over the long term to worsen diabetes.
Different groups of obese, diabetic female (ob/ob) mice (body weight of approximately 33 g) maintained on 12 hour daily photoperiods, housed one per cage and allowed to feed ad libitum were randomized to once daily treatment with either a specific dopamine reuptake inhibitor, GBR 12909 at a dose of 30 mg/kg body weight (n=5-7) or vehicle (control group; n=5-7) for a 14 day period. On the fifteenth day of the study and approximately 24 hours after the final treatment animals were sacrificed and blood samples were obtained for the analyses of blood glucose and plasma free fatty acid and triglyceride levels.

[10] = tested on: male mice fed a high fat diet; assay: GBR versus bupropion in high fat diet mice (Example 11)
Experimental: The effect of increasing central dopamine neuronal activity versus increasing central dopamine plus norepinephrine neuronal activity on body fat, blood glucose, plasma insulin, and insulin sensitivity was studied in male mice fed a high fat diet from 4 weeks of age until 24 weeks of age. These mice were maintained on this high fat diet while treated with either GBR (20 mg/kg) (a selective dopamine reuptake inhibitor) or bupropion (20 mg/kg) (a dopamine and norepinpehrine reuptake inhibitor) at doses that approximate their 50% maximal effective dose for these functions in vivo in rodents.

[11] = GBR 12909 10 mg/kg, FA 15 mg/kg, 14 days

CC(C)C[C@H]1C(=O)N2CCC[C@H]2[C@]2(O)O[C@](NC(=O)[C@@H]3C=C4c5cccc6[nH]c(Br)c(c56)C[C@H]4N(C)C3)(C(C)C)C(=O)N12 [bromocriptine]
blood glucose level [1]: no effect | plasma insulin level ([2]; FIG. 21): no effect | HOMA-IR (insulin resistance) ([2]; FIG. 22): no significant effect

CCCCc1ccc(C(=O)O)nc1 [fusaric acid, 5-butyl-2-pyridinecarboxylic acid]
body weight [3]: not observed | plasma insulin levels [3, 11]: significantly higher | retroperitoneal fat pad weight ([4]; 14 days, control 727+/−25): 735 ± 43 mg | plasma triglyceride level ([4]; 14 days, controls 155+/−15): 170 ± 27 mg/dL | blood glucose ([4]; once daily 14 days, controls 380+/−30): 430 ± 30 mg/dL | blood glucose [5]: no significant effect | change from baseline body weight (weight loss) ([6]; Q 0.075 mg/kg, FA 12.5 mg/kg, 17 days, FIGS. 1 and 2): modest if any effects | blood glucose ([6]; relative to vehicle, FIG. 6): reduced | plasma C-reactive protein (CRP) levels ([6]; relative to vehicle, sacrifice at 18 days): no significant effect

Clc1cccc(Cl)c1NC1=NCCN1 [clonidine, 2-(2,6-dichloroanilino)-2-imidazoline]
blood glucose [7]: 250 ± 35 mg/dL | body fat store level (intraabdominal fat pad) [8]: no effect

Cl.Cl.Fc1ccc(C(OCCN2CCN(CCCc3ccccc3)CC2)c2ccc(F)cc2)cc1 [GBR 12909, 1-(2-[bis(4-Fluorophenyl)methoxy]ethyl)-4-(3-phenylpropyl)piperazine dihydrochloride]
reduction of plasma triglyceride level relative to controls [9]: approximately 32% | blood glucose ([9]; about 24 h after final treatment, controls 455+/−50): 145 ± 25 mg/dL | final body weight ([9]; controls 42+/−2): 28 ± 0.5 g | plasma free fatty acid levels ([9]; controls 780+/−40): 450 ± 20 µM | body weight [3]: not observed | blood glucose ([3]; GBR 12909 10 mg/kg, FA 15 mg/kg, 14 days, FIG. 11): no significant effect | plasma insulin levels [3, 11]: significantly higher | body fat (intraabdominal fat pad) ([10]; 20 mg/kg, compared to vehicle and Bupropion, FIG. 17): significantly reduced | HOMA-IR values ([10]; 20 mg/kg, compared to vehicle and Bupropion, FIG. 19): significantly reduced | blood glucose ([10]; 20 mg/kg, relative to vehicle and Bupropion, FIG. 18): significantly reduced | reduction of plasma insulin compared with bupropion ([10]; equal dose 20 mg/kg): much more effective | blood glucose [7]: 221 ± 31 mg/dL
